From US20070043047A1, “Fungicidal mixtures for controlling rice pathogens” (BASF AKTIENGESELLSCHAFT, priority 2003, published 2007)

System: Corticium sasakii (syn. Rhizoctonia solani)
Experiment: Activity against sheath blight on rice caused by Corticium sasakii (protective spray, pot test)
Format: in vivo
Conditions: for Efficacy in % of the untreated control: individual active compound, rice, evaluated after 11 days, untreated control 90% infection
Method: The active compounds, separately or jointly, were prepared as a stock solution with 0.25% by weight of active compound in acetone or DMSO. 1% by weight of the emulsifier Uniperol® EL (wetting agent having emulsifying and dispersing action based on ethoxylated alkylphenols) was added to this solution, and the solution was diluted with water to the desired concentration.
Use example—Activity against sheath blight on rice caused by Corticium sasakii (syn. Rhizoctonia solani) Pots of rice plants of the cultivar “Tai-Nong 67” were sprayed to runoff point with an aqueous suspension having the concentration of active compound stated below. The next day, oat grains infected with Corticium sasakii were placed into the pots (in each case 5 grains per pot). The plants were then placed in a chamber at 26° C. and maximum atmospheric humidity. After 11 days, the sheath blight on the untreated but infected control plants had developed to such an extent that the infection could be determined visually in %.
Evaluation is carried out by determining the infected plants in percent. These percentages were converted into efficacies.
The efficacy (E) is calculated as follows using Abbot's formula: E=(1−α/β)·100 α corresponds to the fungicidal infection of the treated plants in % and β corresponds to the fungicidal infection of the untreated (control) plants in % An efficacy of 0 means that the infection level of the treated plants corresponds to that of the untreated control plants; an efficacy of 100 means that the treated plants are not infected.
The expected efficacies of the mixtures of active compounds are determined using Colby's formula [R. S. Colby, Weeds 15, 20-22 (1967)] and compared with the observed efficacies.
Colby's formula: E=x+y−x·y/100
E expected efficacy, expressed in % of the untreated control, when using the mixture of the active compounds A and B at the concentrations a and b x efficacy, expressed in % of the untreated control, when using active compound A at the concentration a y efficacy, expressed in % of the untreated control, when using active compound B at the concentration b

SMILES	Efficacy in % of the untreated control (1 ppm in the spray liquor) [%]	Efficacy in % of the untreated control (4 ppm in the spray liquor) [%]	Effectiveness against sheath blight, comparison in words (summary of the test results)
CC1CCN(c2c(-c3c(F)cccc3Cl)c(Cl)nc3ncnn23)CC1 (single isomer, unassigned) [A]	0	0	
CC1CCN(c2c(-c3c(F)cccc3Cl)c(Cl)nc3ncnn23)CC1 (single isomer, unassigned) [B]	0	72	activity comparable to that of compound I
CC1CCN(c2c(-c3c(F)cc(F)cc3F)c(Cl)nc3ncnn23)CC1 [I, 5-chloro-7-(4-methylpiperidin-1-yl)-6-(2,4,6-trifluorophenyl)-[1,2,4]tri-azolo[1,5-a]pyrimidine]	33	67	
CC(Cc1ccc(C(C)(C)C)cc1)CN1C[C@@H](C)O[C@@H](C)C1 (stereo partly drawn) [II, 4-[3-(4-tert-butylphenyl)-2-methylpropyl]-2,6-dimethylmorpholine]	0	0	
